Here are results for four compounds from patent US20250361214A1, “TRIAZINE LIPIDS, LIPID SYNTHESIS, AND METHODS FOR INHIBITING CANONICAL NFKB TRANSCRIPTIONAL ACTIVITY” (University of Kentucky Research Foundation, priority 2022, published 2025).

As a reminder, the IC50 is the concentration that gives 50% inhibition.

SMILES strings stand for the structures. Some results are limits rather than exact numbers.

Data set [1] deals with canonical NFKB. In words: THP-1-Blue NFKB reporter (SEAP) assay. To be noted: THP-1-Blue cells stimulated with TNFα. The class given is cell-based, human.
For data set [2], the system named is plasmid DNA. In words: Gel shift assay using plasmid DNA. It is filed as binding. The note with it: 1:1 molar ratio cationic lipid and DOPE, agarose gel. On the procedure:
Gel Shift Assays Using Plasmid DNA. Nanoparticles consisting of a 1:1 molar ratio of cationic lipid/DOPE were rehydrated in a 20 mM HEPES solution at pH 4. […] The gels were visualized and photographed using a Bio-Rad ChemiDoc XR system using the manufacturer's software.

Data set [3] has as its system HeLa cells. In words: Transfection of luciferase plasmid. The class given is cell-based. The method, then:
Transfection of Luciferase Plasmid and Cell Viability. HeLa cells cultured in EMEM (ATCC) supplemented with 10% fetal bovine serum were transferred to a 96 well plate, in quadruplicate, at a density of 20,000 cells per well and incubated for 24 hours at 37° C. in 5% CO2. Liposomes made with a 1:1 ratio of DOPE and TZ lipid were added to 200 ng pGL3 Luciferase Reporter Vector (Promega) at N:P ratios of 2.5, 5 and 10, and incubated at 37° C. for 10 minutes before being diluted in 100 μL of nonsupplemented EMEM and added to the cells. Following a four hour incubation at 37° C., the media was changed, and the cells were incubated for another twenty hours, at which point the cells were lysed with a cell culture lysis reagent at pH 7.8 composed of 25 mM Tris-phosphate buffer, 0.7 g L^−1 1,2-diaminocyclohexane, 10% glycerol, 1% Triton X-100, and 1% protease inhibitor cocktail (Millipore). Total protein content was determined with a bicinchoninic acid assay (G-Biosciences) and luciferase protein expression was quantified by a luciferase assay (Promega). Cell viability was assessed using a Cell Titer Blue assay kit (Promega) based on the manufacturer's instructions. In each of the three independent experiments performed, transfection was compared with cells treated with Lipofectamine 3000 (Thermo), following the manufacturer's instructions, and with DNA treated cells.

Data set [4] relates to C57BL/6J mice. In words: In vivo toxicity of cationic lipid nanoparticles (ALT, IL-6, SCr, mortality).
Data set [5] can be described thus: Differential scanning calorimetry, transition temperature (Tm) of lipids. To be noted: liposomes of pure lipid, 10 mM in 20 mM HEPES, DSC. The class given is physicochemical. On the procedure: Differential Scanning calorimetery. The transition temperature (Tm) of the lipids was determined using a multicell differential scanning calorimeter (TA Instruments). Liposomes were made with triazine lipids at a concentration of 10 mM in 20 mM HEPES buffer. These were heated to 60° C. and sonicated until the solution was translucent. For Tm determination, 250 μL of the liposome solution was transferred into reusable hastelloy ampoules while 250 μL of the HEPES solution was transferred to the third ampoule, leaving the reference ampoule empty. […] Data was collected over a range of 10-110° C. at a rate of 2° C. min-1 in a heat-cool-heat cycle. After the run was complete, the CpCalc 2.1 software package was used to convert the raw data into a molar heat capacity and the data from the second heating cycle were processed using Microsoft Excel.
For orientation: DSC measures the heat that a sample takes up or gives off during a temperature scan.

A short description of data set [6]: Size and charge determination of nanoparticles (Zetasizer Nano ZS), Example 1. It is filed as physicochemical. From the text:
Size and Charge Determination.

Data set [7] relates to bone marrow derived macrophages. In words: in vitro. The class given is cell-based. The note with it: female, C57BL/6J, mouse, 24 h. The method, then: (§1) Cell Culture of Bone Marrow-Derived Macrophages. […] After 7 days, the cells were transferred to tissue culture 96 well plates (Corning) at a density of 100,000 in 20 μL of medium and allowed to settle overnight for subsequent assays.
(§2) Lactate Dehydrogenase Release (LDH) Toxicity Assay. For determination of cytotoxicity, mature bone marrow-derived macrophages (BMDM) were treated with 20 μL of the lipids (concentrations denoted in figure legend) diluted in 20 mM HEPES buffer, with HEPES buffer as negative control and 10% Triton X-100 as positive control. After 24 hours, the 96 well plates were centrifuged at 200×g for 5 minutes to remove debris and 100 μL of media was transferred to an untreated flat-bottom 96 well plate. Next, 100 μL of LDH reaction reagent purchased from Cayman Chemical (Ann Arbor, MI) was added to each and allowed to sit for 30 minutes at 37° C. Absorbance at 490 and 680 nm were measured using a BioTek Synergy H1 plate reader and the data were processed using Microsoft Excel. Mean values from triplicates are shown for one of two independent experiments.

Data set [8] is described as follows: in vitro. It is filed as cell-based. The note with it: female, C57BL/6J, mouse. The method, then:
as §1, §2

In data set [9] the test system is murine macrophages. To be noted: incubation of murine macrophages; cited from earlier work.
In data set [10] the test system is cIAP. To be noted: cited from earlier work.
Where [11] appears, read: 20 mM lipid, i.p., versus baseline.

As to `CCCCCCCC/C=C\CCCCCCCC(=O)OC[C@@H](COP(=O)(O)OCCN)OC(=O)CCCCCCC/C=C\CCCCCCCC` (stereo in doubt) [DOPE, 1,2-dioleoyl-sn-glycero-3-phosphoethanolamine, reference compound], the “canonical NFKB inhibition” value in [1] was “exhibited no activity”. Further, the “N:P ratio at which nucleic acid is complexed / migration inhibited” value in data set [2] is reported as “unable to prevent migration”.

As to `CCCCCCCCCCCCN(CCCCCCCCCCCC)c1nc(NCCCN(C)C)nc(NCCCN(C)C)n1` [Lipid 9], the “plasmid transfection (luciferase)” value in data set [3] (TZ lipid:DOPE 1:1, compared with naked plasmid) was “better efficacy than the lipids with C18 tails”. In addition, in [3] (average, lipid 9:DOPE 1:1 at an N:P ratio of 5, 200 ng pGL3), the luciferase expression turned out to be 462 RLU per mg. Further, in data set [4] (10 mM lipid, i.p.), the deaths entry is on record as “one mouse dying”, the “interleukin 6 (IL-6)” value is reported as “statistically significant increases” and the “serum alanine aminotransferase (ALT)” value is “statistically significant increases”. In addition, the deaths entry in [4] (20 mM lipid, i.p.) is on record as “three of the ten mice in this group died”. Also, in [4] (setting [11]), the “interleukin 6 (IL-6)” value is given as “significant elevations”, the “serum alanine aminotransferase (ALT)” value was “significant elevations” and the “serum creatinine (SCr)” value is recorded as “elevated but did not reach statistical significance”. The “in vivo toxicity (overall)” value in data set [4] (100 μL cationic lipid nanoparticles i.p.) was “confers significant toxicity and mortality”. For the same compound, in [4] (72 hours, 10 and 20 mM), the “visual examination of internal organs” value is “significant inflammation and swelling throughout the intestines and abdominal cavity”. In data set [5], the Tm was under 10 °C. In data set [6] (nanoparticles of pure lipid (Table 1)), this compound came in with a PDI of 0.24 ± 0.00. Also, in data set [6] (nanoparticles of pure lipid, 1 mM, 25° C. (Table 1)), the Size is given as 159 ± 1 nm. In data set [6] (zeta potential, nanoparticles of pure lipid (Table 1)), this compound had a Charge of 45 ± 2 mV. Moreover, the LD50 in data set [7] was found to be 337 mM. The IC50 at 24 h in data set [8] was determined as 337 µM.

On to `CC[C@H]1OC(=O)[C@H](C)[C@@H](O[C@H]2C[C@@](C)(OC)[C@@H](O)[C@H](C)O2)[C@H](C)[C@@H](O[C@@H]2O[C@H](C)C[C@H](N(C)C)[C@H]2O)[C@](C)(O)C[C@@H](C)CN(C)[C@H](C)[C@@H](O)[C@]1(C)O` [azithromycin], for which the IKKβ expression result in [9] is on record as “increases the overall expression of IKβ kinase (IKKB)”.

On to `CC[C@H](NC(=O)[C@H](C)NC)C(=O)N1C[C@@H](O)C[C@H]1Cc1c(-c2[nH]c3cc(F)ccc3c2C[C@@H]2C[C@H](O)CN2C(=O)[C@H](CC)NC(=O)[C@H](C)NC)[nH]c2cc(F)ccc12` [birinapant], for which the IC50 in data set [10] was 50 nM.
